{
  "source": "patent US11484032B2",
  "about": "“Compositions for inhibition of insect sensing” (Vanderbilt University, priority 2011, dated 2022)",
  "key": {"AgORco+AgOR10 [1]": {"biological_target": "T1, AgORco+AgOR10 (Anopheles gambiae, UniProt Q7QCC7)", "T1 construct": "expressed in transfected cells", "T1 sequence (Q7QCC7 1-478)": "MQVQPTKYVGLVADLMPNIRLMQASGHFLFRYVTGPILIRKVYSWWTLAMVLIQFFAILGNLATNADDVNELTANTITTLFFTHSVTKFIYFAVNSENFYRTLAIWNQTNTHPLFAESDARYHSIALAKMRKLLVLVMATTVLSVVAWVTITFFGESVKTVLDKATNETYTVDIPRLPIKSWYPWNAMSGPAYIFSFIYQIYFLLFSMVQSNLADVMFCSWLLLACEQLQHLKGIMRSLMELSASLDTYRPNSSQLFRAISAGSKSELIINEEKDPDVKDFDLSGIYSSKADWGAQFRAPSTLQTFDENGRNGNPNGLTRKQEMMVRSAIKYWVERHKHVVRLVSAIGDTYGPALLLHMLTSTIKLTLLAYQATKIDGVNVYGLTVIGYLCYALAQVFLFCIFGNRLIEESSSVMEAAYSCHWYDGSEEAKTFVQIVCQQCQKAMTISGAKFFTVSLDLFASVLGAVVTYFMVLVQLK", "assay": "Whole-cell patch clamp, HEK293 cells expressing AgORco+AgOR10", "type": "cell-based", "settings": "for whole-cell current response: holding potential −60 mV", "method": "(§1) Currents from OR-expressing HEK293 cells were amplified with an Axopatch 200b Amplifier (Axon Instruments) and digitized through a Digidata 1322A (Axon Instruments). Electrophysiological data was recorded and analyzed using pCLAMP 10 (Axon Instruments). Electrodes were fabricated from quartz tubing (Sutter Instruments) and pulled to 4-6 MiΩ for whole cell recording. Electrodes were filled with internal solution (120 mM KCl, 30 mM D-glucose, 10 mM HEPES, 2 mM MgCl2, 1.1 mM EGTA, and 0.1 CaCl2) (pH 7.35, 280 mOsm). External (bath) solution contained 130 mM NaCl, 34 mM D-glucose, 10 mM HEPES, 1.5 mM CaCl2), 1.3 mM KH2PO4, and 0.5 MgSO4 (pH 7.35, 300 mOsm). Compounds were diluted in external solution and locally perfused to the recording cell using Perfusion Pencil (Automate Scientific) and controlled by a ValveLink 8.2 controller (Automate Scientific). Whole cell recordings were sampled at 10 kHz and filtered at 5 kHz. Outside-out patches were obtained using 10-15MΩ electrodes pulled from standard glass capillaries (World Precision Instruments) and fire-polished with an MF-830 micro forge (Narishige). Single channel recordings were sampled at 20 kHz. Recordings were reduced to 1 kHz and low-pass filtered at 500 Hz for display and analysis using QuB (SUNY at Buffalo).\n(§2) To test the hypothesis that VUAA1 directly agonized AgORco, whole-cell patch clamp responses were examined in AgORco+AgOR10 expressing cells as well as HEK293 cells stably expressing AgORco alone. […] The VUAA1-dependent currents in AgORco+AgOR10 cells resembled those resulting from application of benzaldehyde, an orthosteric agonist of AgOR10 (FIG. 3C) (Wang, 2010; Carey, 2010). […] To investigate the specificity of VUAA1 agonism, the inventors transiently transfected HEK cells with the AgORco orthologs of Drosophila melanogaster and Heliothis virescens, DmORco and HvOR2 respectively."}, "AgORco": {"biological_target": "T2, AgORco (Anopheles gambiae, UniProt Q7QCC7)", "T2 construct": "expressed in transfected cells", "T2 sequence (Q7QCC7 1-478)": "T1 sequence (Q7QCC7 1-478)", "assay": "Whole-cell patch clamp, HEK293 cells stably expressing AgORco alone", "type": "cell-based", "settings": "for whole-cell current response: AgORco alone cells, holding potential −60 mV", "method": "as §1, §2"}, "[2]": {"system": "Un-transfected HEK293 cells", "assay": "Whole-cell patch clamp, un-transfected HEK293 control cells", "type": "cell-based, human", "method": "as §1"}, "[3]": {"biological_target": "T3, mosquito odorant receptor (complex not stated) (Anopheles gambiae, UniProt Q7QCC7)", "T3 sequence (Q7QCC7 1-478)": "T1 sequence (Q7QCC7 1-478)", "assay": "Agonism of mosquito odorant receptors by VUAA derivatives (complex not stated), cell-based Ca2+ imaging", "settings": "FIGS. 23, 24, 26, 28; OR complex not stated", "from_the_text": "For transient transfections, ORs were cloned into pCl (Promega) and transfected into Flp-In™ T-REx™293 cell lines (Invitrogen) with Fu GENE6 (Roche). For the creation of stable cell lines, a cell culture expression vector capable of expressing Orco in conjunction with a conventional OR, pcDNA5/FRT/TO (Invitrogen) was modified to create two individual expression cassettes each under the control of a separate CMV/Tet02 promoter and a BGH poly-adenylation signal. Cells (as above) were transfected with the modified pcDNA5 plasmid along with POG44 (a Flp recombinase expression plasmid) to facilitate site-specific recombination. Stable cell lines were selected using Hygromycin B (Invitrogen). Cells were maintained in DMEM (Invitrogen) supplemented with 10% Tetracycline-free FBS (HyClone) and 15 ng/ml Blasticidin. For fluorometric Ca2+ measurements, stable lines expressing ORs of interest were seeded at 20,000 cells/well in black wall, poly-lysine coated 384-well cell culture plates (Greiner) and treated with […] tetracycline (Sigma) overnight to induce OR expression. Cells were dye-loaded with 1.8 uM Fluo-4 AM (Molecular Probes), 2.5 mM Probenecid (Molecular Probes) in assay buffer (20 mM HEPES, IX HBSS) for 45 minutes at 37° C. in 5% CO2 prior to each assay. Ca^2+ mobilization was assayed in an FDSS6000 (Hamamatsu). Baseline readings were taken for 20 s before automated addition of compound previously diluted in DMSO and assay buffer. Ratios were described as Maximum/Minimum response and each response was normalized to the maximum responder."}, "Orco 28 + Orco": {"biological_target": "T4, Orco 28 + Orco (Anopheles gambiae, UniProt Q7QCC7)", "T4 construct": "expressed in transfected cells", "T4 sequence (Q7QCC7 1-478)": "T1 sequence (Q7QCC7 1-478)", "assay": "Activity against insect odorant sensory receptors, Orco 28 + Orco (Table 1)", "type": "cell-based", "settings": "for Orco 28 + Orco Potentiator % increase: potentiator mode; for Orco 28 + Orco Antagonist % Reduction: antagonist mode", "method": "The activity against insect odorant sensory receptors was evaluated for various disclosed compounds, and the data were collected in Table 1."}, "AgORco+AgOR10 [4]": {"biological_target": "T1, AgORco+AgOR10", "assay": "Fluo-4 Ca2+ imaging, HEK293 cells expressing Orco+AgOR10", "type": "cell-based", "set-up": "Orco 10 + Orco Angatonist % Reduction / Orco 10 + Orco Agonist % of control: concentration or dose not given beside the values", "settings": "Orco 10 + Orco; for Orco 10 + Orco Angatonist % Reduction: antagonist mode", "method_in_brief": "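Stable Flp-In T-REx 293 lines co-expressing Orco and OR, induced overnight with 0.3 u-g/ul tetracycline, loaded with 1.8 uM Fluo-4 AM plus 2.5 mM probenecid for 45 min at 37 °C. Ca2+ mobilization read after 20 s baseline and compound addition; Max/Min ratios normalized to the maximum responder.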"}, "[5]": {"biological_target": "T5, rat transient receptor potential vanilloid 1 (rTRPV1) (Rattus norvegicus, UniProt O35433)", "T5 construct": "expressed in transfected cells", "T5 sequence (O35433 whole entry)": "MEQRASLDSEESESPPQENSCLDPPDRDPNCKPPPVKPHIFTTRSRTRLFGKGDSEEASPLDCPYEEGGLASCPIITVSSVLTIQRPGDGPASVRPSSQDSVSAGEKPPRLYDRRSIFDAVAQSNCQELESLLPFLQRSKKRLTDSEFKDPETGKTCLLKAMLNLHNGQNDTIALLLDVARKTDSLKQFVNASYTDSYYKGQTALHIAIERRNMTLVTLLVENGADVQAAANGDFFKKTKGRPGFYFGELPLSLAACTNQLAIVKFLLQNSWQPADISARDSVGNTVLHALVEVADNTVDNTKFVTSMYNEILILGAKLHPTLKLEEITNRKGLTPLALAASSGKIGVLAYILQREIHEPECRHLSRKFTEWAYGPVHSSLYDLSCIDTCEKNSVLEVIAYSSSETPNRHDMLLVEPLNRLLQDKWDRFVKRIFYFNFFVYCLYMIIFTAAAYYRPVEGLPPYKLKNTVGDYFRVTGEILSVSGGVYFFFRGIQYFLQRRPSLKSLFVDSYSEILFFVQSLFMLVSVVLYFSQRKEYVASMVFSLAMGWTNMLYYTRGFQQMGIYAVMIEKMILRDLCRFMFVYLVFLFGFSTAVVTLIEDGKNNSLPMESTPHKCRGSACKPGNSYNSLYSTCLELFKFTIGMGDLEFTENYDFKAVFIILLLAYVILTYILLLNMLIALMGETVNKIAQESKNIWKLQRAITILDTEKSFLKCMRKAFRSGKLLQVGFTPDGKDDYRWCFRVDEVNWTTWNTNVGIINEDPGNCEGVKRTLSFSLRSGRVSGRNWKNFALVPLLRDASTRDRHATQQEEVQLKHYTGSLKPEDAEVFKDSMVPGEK", "assay": "Whole-cell patch clamp, HEK cells stably expressing rTRPV1", "type": "cell-based"}},
  "note": "pEC50: −log10 of the molar value.",
  "data": [
    {"molecule": "O=Cc1ccccc1", "note": "[Benzaldehyde]", "values": [
      {"measurement": "whole-cell current response", "setting": "AgORco+AgOR10 [1]; AgORco+AgOR10 cells", "value": "concentration-dependent responses"},
      {"measurement": "reversal potential of agonist-induced current", "setting": "AgORco+AgOR10 [1]; AgORco+AgOR10 complexes, mean s.e.m.", "value": "−2.9±1.4", "unit": "mV"},
      {"measurement": "whole-cell current response", "setting": "AgORco", "value": "only Orco+AgOR10 cells responded to BA"},
      {"measurement": "whole-cell current response", "setting": "[2]", "value": "did not respond"}
    ]},
    {"molecule": "CCn1c(SCC(=O)Nc2ccc(C(C)C)cc2)nnc1-c1cn[nH]c1", "note": "[D00049 row 12]", "values": [
      {"measurement": "pEC50", "setting": "[3]", "value": 3.70}
    ]},
    {"molecule": "CCn1c(Cc2ccccc2)nnc1SCC(=O)Nc1ccc(OC)cc1", "values": [
      {"measurement": "Orco 28 + Orco Potentiator % increase", "setting": "Orco 28 + Orco", "value": 12.7, "unit": "%"}
    ]},
    {"molecule": "CCn1c(CNC(=O)c2ccco2)nnc1SCC(=O)Nc1cc(C)c(C)cc1Br", "values": [
      {"measurement": "Orco 28 + Orco Potentiator % increase", "setting": "Orco 28 + Orco", "value": 12.28, "unit": "%"}
    ]},
    {"molecule": "Nc1nc2c(nc(Br)n2[C@@H]2O[C@@H]3COP(=O)(O)O[C@H]3[C@H]2O)c(=O)[nH]1", "note": "[8-Br cGMP, 8-Br-cGMP]", "values": [
      {"measurement": "whole-cell current response", "setting": "AgORco+AgOR10 [1]; AgORco+AgOR10 cells", "value": "unable to evoke whole-cell currents"},
      {"measurement": "whole-cell current response", "setting": "AgORco", "value": "unable to evoke whole-cell currents"}
    ]},
    {"molecule": "Nc1ncnc2c1nc(Br)n2[C@@H]1O[C@@H]2COP(=O)(O)O[C@H]2[C@H]1O", "note": "[8-Br cAMP, 8-Br-cAMP]", "values": [
      {"measurement": "whole-cell current response", "setting": "AgORco+AgOR10 [1]; AgORco+AgOR10 cells", "value": "unable to evoke whole-cell currents"},
      {"measurement": "whole-cell current response", "setting": "AgORco", "value": "unable to evoke whole-cell currents"}
    ]},
    {"molecule": "CCn1c(SCC(=O)Nc2ccc(Cl)cc2C)nnc1-c1ccncc1", "values": [
      {"measurement": "Orco 28 + Orco Potentiator % increase", "setting": "Orco 28 + Orco", "value": 17.69, "unit": "%"}
    ]},
    {"molecule": "CCn1c(SCC(=O)N2c3ccccc3Sc3ccccc32)nnc1-c1ccco1", "values": [
      {"measurement": "Orco 28 + Orco Antagonist % Reduction", "setting": "Orco 28 + Orco", "value": 28.73, "unit": "%"},
      {"measurement": "Orco 10 + Orco Angatonist % Reduction", "setting": "AgORco+AgOR10 [4]", "value": 48.26, "unit": "%"}
    ]},
    {"molecule": "CCn1c(SCC(=O)Nc2ccc(C(C)C)cc2)nnc1-c1cccnc1", "note": "[D00049 row 2]", "values": [
      {"measurement": "pEC50", "setting": "[3]", "value": 4.70}
    ]},
    {"molecule": "CCn1c(SCC(=O)Nc2ccc(S(=O)(=O)Nc3ccccn3)cc2)nnc1-c1ccncc1", "values": [
      {"measurement": "Orco 28 + Orco Potentiator % increase", "setting": "Orco 28 + Orco", "value": 15.45, "unit": "%"},
      {"measurement": "Orco 10 + Orco Potentiator % increase", "setting": "AgORco+AgOR10 [4]; potentiator mode", "value": 12.31, "unit": "%"}
    ]},
    {"molecule": "COc1cc(CNC(=O)CCCC/C=C/C(C)C)ccc1O", "note": "[Capsaicin, capsaicin, reference compound]", "values": [
      {"measurement": "whole-cell current response", "setting": "[5]", "value": "robust response"}
    ]},
    {"molecule": "CCn1c(COc2ccccc2)nnc1SCC(=O)Nc1cc(C)ccc1OC", "values": [
      {"measurement": "Orco 28 + Orco Antagonist % Reduction", "setting": "Orco 28 + Orco", "value": 17.21, "unit": "%"},
      {"measurement": "Orco 10 + Orco Angatonist % Reduction", "setting": "AgORco+AgOR10 [4]", "value": 33.67, "unit": "%"}
    ]},
    {"molecule": "CCn1c(Cc2c(C)[nH]c3ccccc23)nnc1SCC(=O)Nc1ccc(Br)cc1", "values": [
      {"measurement": "Orco 28 + Orco Antagonist % Reduction", "setting": "Orco 28 + Orco", "value": 37.93, "unit": "%"},
      {"measurement": "Orco 10 + Orco Angatonist % Reduction", "setting": "AgORco+AgOR10 [4]", "value": 13.11, "unit": "%"}
    ]},
    {"molecule": "N.N.N.N.N.N.N.N.N.N.N.N.N.N.[Cl-].[Cl-].[Cl-].[Cl-].[Cl-].[Cl-].[O-2].[O-2].[Ru+3].[Ru+3].[Ru+4]", "note": "[RR, Ruthenium Red]", "values": [
      {"measurement": "reduction of VUAA1-elicited currents", "setting": "AgORco+AgOR10 [1]; AgORco+AgOR10 cells, agonist VUAA1", "value": "68.3±2.8", "unit": "%"},
      {"measurement": "reduction of benzaldehyde-elicited currents", "setting": "AgORco+AgOR10 [1]; AgORco+AgOR10 cells, agonist benzaldehyde", "value": "87.8±1.8", "unit": "%"},
      {"measurement": "reduction of VUAA1 responses", "setting": "AgORco; AgORco cells, agonist VUAA1", "value": "79.4±4.0", "unit": "%"}
    ]},
    {"molecule": "CCn1c(SCC(=O)Nc2ccc(C(C)C)cc2)nnc1-c1cnn(C)c1", "note": "[D00049 row 11]", "values": [
      {"measurement": "pEC50", "setting": "[3]", "value": 3.74}
    ]}
  ]
}
